Experimental data from PMC10222328 (Pharmaceuticals, 2023).

molecular target: T1, COX-2 (Homo sapiens, UniProt P35354); test: Fluorometric COX-2 inhibitor screening kit; type: biochemical; conditions: at 10 µM; mean ± standard error of two measurements; read-out: COX-2 Percent of Inhibition
T1 construct: purchased Abcam, UK
T1 sequence (P35354 18-604): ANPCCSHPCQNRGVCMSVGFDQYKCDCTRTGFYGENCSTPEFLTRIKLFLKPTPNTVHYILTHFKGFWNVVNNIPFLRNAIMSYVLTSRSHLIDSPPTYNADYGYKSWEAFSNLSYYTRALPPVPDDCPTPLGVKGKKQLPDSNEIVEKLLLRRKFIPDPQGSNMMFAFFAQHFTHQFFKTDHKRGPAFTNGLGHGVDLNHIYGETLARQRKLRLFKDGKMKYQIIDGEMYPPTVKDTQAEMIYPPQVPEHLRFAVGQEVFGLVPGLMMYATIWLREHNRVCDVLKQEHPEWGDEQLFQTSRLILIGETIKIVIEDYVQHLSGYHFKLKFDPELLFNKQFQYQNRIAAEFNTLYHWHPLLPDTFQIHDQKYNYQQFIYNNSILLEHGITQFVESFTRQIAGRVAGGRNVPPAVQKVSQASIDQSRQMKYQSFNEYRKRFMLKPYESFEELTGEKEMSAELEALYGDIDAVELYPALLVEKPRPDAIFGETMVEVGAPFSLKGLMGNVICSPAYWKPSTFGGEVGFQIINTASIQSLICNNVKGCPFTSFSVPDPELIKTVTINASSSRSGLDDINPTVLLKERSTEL
Experimental: COX-2 and 5-LOX inhibitory activities were tested using fluorometric COX-2 and 5-LOX inhibitor screening kits (Abcam, UK). These assays are based on the fluorometric detection of Prostaglandin G2 (a product generated by the COX enzyme) or on the fluorometric detection of intermediate generated by the 5-LOX enzyme. The experiments were conducted according to the manufacturers’ instructions.
For the determination of COX-2 inhibitory activity, tested compounds were dissolved in DMSO (5 mM stock solutions) and then diluted with the same solvent to obtain test solutions. Test solutions were further diluted 5X with COX assay buffer (2 µL of test solution and 8 µL COX assay buffer). […] Solvent control (SC) was prepared by adding 2 µL DMSO and 8 µL COX assay buffer, while sample (S) and enzyme control (EC) were prepared by adding 10 µL of diluted test solution and COX assay buffer, respectively, into assigned wells. For the determination of 5-LOX inhibitory activity, tested compounds were also dissolved in DMSO to prepare stock solutions with the same concentration (5mM), which were then diluted with the same solvent to obtain test solutions. Subsequently, test solutions were added to corresponding wells (2 µL).

SMILES | inhibition at 10 µM [%]
COc1ccc(NC(=S)NC(=O)[C@@H](C)c2ccc3cc(OC)ccc3c2)cc1 [Compound 2, (S)-2-(6-methoxynaphthalen-2-yl)-N-((4-methoxyphenyl)carbamothioyl)propanamide] | 18.8 ± 4.37
CCOC(=O)C(Cc1ccccc1)NC(=S)NC(=O)C(C)c1ccc2cc(OC)ccc2c1 [Compound 6, Ethyl(((S)-2-(6-methoxynaphthalen-2-yl)propanoyl)carbamothioyl)-L-phenylalaninate] | 24 ± 5.36
COc1ccc2cc([C@H](C)C(=O)NC(=S)Nc3ccc(F)cc3)ccc2c1 [Compound 1, (S)-N-((4-fluorophenyl)carbamothioyl)-2-(6-methoxynaphthalen-2-yl)propanamide] | 24.7 ± 1.11
COc1ccc2cc([C@H](C)C(=O)NC(=S)Nc3ccc(C(C)=O)cc3)ccc2c1 [Compound 5, (S)-N-((4-acetylphenyl)carbamothioyl)-2-(6-methoxynaphthalen-2-yl)propanamide] | 19.6 ± 4.55
COc1cccc(NC(=S)NC(=O)[C@@H](C)c2ccc3cc(OC)ccc3c2)c1 [Compound 4, (S)-2-(6-methoxynaphthalen-2-yl)-N-((3-methoxyphenyl)carbamothioyl)propanamide] | 37.71 ± 0.28
COC(=O)[C@H](Cc1cn(C)c2ccccc12)NC(=S)NC(=O)[C@@H](C)c1ccc2cc(OC)ccc2c1 [Compound 7, Methyl-N^α-(((S)-2-(6-methoxynaphthalen-2-yl)propanoyl)carbamothioyl)-1-methyltryptophanate] | 24.2 ± 5.77
CCOc1ccc(NC(=S)NC(=O)[C@@H](C)c2ccc3cc(OC)ccc3c2)cc1 [Compound 3, (S)-N-((4-ethoxyphenyl)carbamothioyl)-2-(6-methoxynaphthalen-2-yl)propanamide] | 23.4 ± 0.57
